Results reported in patent US8158657B2, “Heterocycles substituted pyridine derivatives and antifungal agent containing thereof” (Eisai R&D Management Co., Ltd., priority 2005, dated 2012).
Converted amounts (≈) assume the structure as drawn.

Columns and labels:
[1] = tested on: A. fumigatus Tsukuba strain; experiment: Anti-Aspergillus activity, MIC measurement; format: cell-based; details: RPMI1640, 42-48 hours at 35° C., visual inspection, read-out: Anti-Aspergillus Activity (minimum inhibitory concentration, MIC)
Description: (§1) For the C. albicans CAF2-1 strain, a fungal suspension from a standing culture for 48 hours at 30° C. in a Sabouraud dextrose liquid culture medium (SDB) was diluted with RPMI1640 medium to adjust a fungal suspension of 1.2×10^3 cells/mL. For the A. fumigatus Tsukuba strain, −80° C. stored strain was diluted with RPMI1640 medium to adjust to a fungal suspension of 4.5×10^3 cells/mL.
(§2) Using a U-bottomed 96 well plate, 8 samples/plate (A to H) of sample dilution solutions were prepared. On the 2nd to 12th rows were dispensed 10 μL of dimethyl sulfoxide solution. Weighted sample was dissolved in dimethyl sulfoxide to prepare a 2.5 mg/mL solution, 20 μL of this solution was added to the first row of the prepared plate, and 12 steps of two-fold step dilutions (10 μL of solution+10 μL of dimethyl sulfoxide solution) were performed on the plate. This sample dilution solution was dispensed in the amount of 1 μL to a flat-bottomed 96 well plate for MIC measurement to prepare a sample dilution plate.
(§3) The fungal suspension prepared in (1) was used in the amount of 99 μL/well to inoculate the flat-bottomed 96 well plate containing 1 μL/well of the test compound dilution prepared in (2), and a standing culture was carried out aerobically for 42-48 hours at 35° C.

[2] = tested on: C. albicans CAF2-1 strain; experiment: Anti-Candida activity, MIC measurement; format: cell-based; details: CAF21STRAIN, C. albicans CAF2-1, RPMI1640, 42-48 hours at 35° C., visual inspection, read-out: Anti-Candida Activity (minimum inhibitory concentration, MIC)
Description: as §1, §2, §3

## Nc1ncccc1-c1cc(Cc2cccc(-c3ccccc3)c2)no1 [Example 85, 3-(3-Biphenyl-3-ylmethyl-isoxazol-5-yl)-pyridin-2-ylamine]
[1]
  MIC: 3.13 µg/mL (≈ 9.56 µM)
[2]
  MIC: 1.56 µg/mL (≈ 4.77 µM)

## CCCCc1ccc(Cc2cc(-c3ccc(N)nc3N)on2)cc1 [Example 130, 3-(3-(4-Butyl-benzyl)-isoxazol-5-yl)-pyridin-2,6-diamine]
[1]
  MIC: 0.2 µg/mL (≈ 0.62 µM)
[2]
  MIC: 1.56 µg/mL (≈ 4.84 µM)

## COCc1ccc(-c2cc(Cc3ccc(OCc4ccccc4)cc3)no2)c(N)n1 [Example 26, 3-(3-(4-Benzyloxy-benzyl)-isoxazol-5-yl)-6-methoxymethyl-pyridin-2-ylamine]
[1]
  MIC: 0.78 µg/mL (≈ 1.94 µM)
[2]
  MIC: 0.78 µg/mL (≈ 1.94 µM)

## Nc1ccc(-c2cc(Cc3ccc(OCc4ccccn4)cc3F)no2)c(N)n1 [Example 158, 3-(3-(2-Fluoro-4-(pyridin-2-ylmethoxy)-benzyl)-isoxazol-5-yl)-pyridin-2,6-diamine]
[1]
  MIC: 3.13 µg/mL (≈ 8 µM)
[2]
  MIC: 1.56 µg/mL (≈ 3.99 µM)

## COc1cccc(COc2ccc(Cc3cc(-c4cccnc4N)on3)cc2)n1 [Example 99, 3-(3-(4-(6-Methoxy-pyridin-2-ylmethoxy)-benzyl)-isoxazol-5-yl)-pyridin-2-ylamine]
[1]
  MIC: 0.78 µg/mL (≈ 2.01 µM)
[2]
  MIC: 3.13 µg/mL (≈ 8.06 µM)

## CCCCOc1cccc(Cc2cc(-c3cccnc3N)on2)c1 [Example 65, 3-(3-(3-Butoxy-benzyl)-isoxazol-5-yl)-pyridin-2-ylamine]
[1]
  MIC: 0.78 µg/mL (≈ 2.41 µM)
[2]
  MIC: 0.39 µg/mL (≈ 1.21 µM)

## Nc1ncccc1-c1cc(Cc2ccc(Oc3ccc(F)cc3)nc2)no1 [Example 75, 3-(3-(6-(4-Fluoro-phenoxy)-pyridin-3-ylmethyl)-isoxazol-5-yl)-pyridin-2-ylamine]
[1]
  MIC: 0.2 µg/mL (≈ 0.552 µM)
[2]
  MIC: 0.78 µg/mL (≈ 2.15 µM)

## Nc1ccc(-c2cc(Cc3ccc(OCc4ccsc4)cc3)no2)c(N)n1 [Example 136, 3-(3-(4-(Thiophen-3-ylmethoxy)-benzyl)-isoxazol-5-yl)-pyridin-2,6-diamine]
[1]
  MIC: 0.2 µg/mL (≈ 0.528 µM)
[2]
  MIC: 0.2 µg/mL (≈ 0.528 µM)

## c1ccc(COc2ccc(Cc3cc(-c4cccnc4)on3)cc2)nc1 [Example 203, 3-(3-(4-(Pyridin-2-ylmethoxy)-benzyl)-isoxazol-5-yl)-pyridine]
[1]
  MIC: 1.56 µg/mL (≈ 4.54 µM)
[2]
  MIC: 0.2 µg/mL (≈ 0.582 µM)

## Nc1ccc(-c2cc(Cc3ccc(OCc4ccccn4)cc3)no2)cn1 [Example 177, 5-(3-(4-(Pyridin-2-ylmethoxy)-benzyl)-isoxazol-5-yl)-pyridin-2-ylamine]
[1]
  MIC: 0.78 µg/mL (≈ 2.18 µM)
[2]
  MIC: 0.39 µg/mL (≈ 1.09 µM)

## Nc1ccc(-c2cc(Cc3ccc(Nc4ccccc4)cc3)no2)c(N)n1 [Example 129, 3-(3-(4-Phenylamino-benzyl)-isoxazol-5-yl)-pyridin-2,6-diamine]
[1]
  MIC: 0.2 µg/mL (≈ 0.56 µM)
[2]
  MIC: 0.2 µg/mL (≈ 0.56 µM)

## Nc1ccc(-c2cc(Cc3ccc(SCc4ccccc4)cc3)no2)c(N)n1 [Example 216, 3-(3-(4-Benzylsulfanyl-benzyl)-isoxazol-5-yl)-pyridin-2,6-diamine]
[1]
  MIC: 0.39 µg/mL (≈ 1 µM)
[2]
  MIC: 0.39 µg/mL (≈ 1 µM)

## Nc1ccc(-c2cc(Cc3ccc(OCc4ccccc4F)cc3)no2)c(N)n1 [Example 18, 3-(3-(4-(2-Fluoro-benzyloxy)-benzyl)-isoxazol-5-yl)-pyridin-2,6-diamine]
[1]
  MIC: 0.78 µg/mL (≈ 2 µM)
[2]
  MIC: 1.56 µg/mL (≈ 4 µM)

## Nc1ncc(Cl)cc1-c1cc(Cc2ccc(COc3ccccn3)cc2)no1 [Example 172]
[1]
  MIC: 12.5 µg/mL (≈ 31.8 µM)
[2]
  MIC: 6.25 µg/mL (≈ 15.9 µM)

## Nc1ccc(-c2cc(Cc3ccc(Oc4ccccc4)nc3)no2)cn1 [Example 181, 5-(3-(6-Phenoxy-pyridin-3-ylmethyl)-isoxazol-5-yl)-pyridin-2-ylamine]
[1]
  MIC: 0.39 µg/mL (≈ 1.13 µM)
[2]
  MIC: 1.56 µg/mL (≈ 4.53 µM)

## Nc1ncccc1-c1cc(Cc2ccc(CCc3ccccn3)cc2)no1 [Example 93, 3-(3-(4-(2-Pyridin-2-yl-ethyl)-benzyl)-isoxazol-5-yl)-pyridin-2-ylamine]
[1]
  MIC: 1.56 µg/mL (≈ 4.38 µM)
[2]
  MIC: 0.2 µg/mL (≈ 0.561 µM)

## Nc1ccc(-c2cnn(Cc3ccc(OCc4ccccn4)cc3)c2)c(N)n1 [Example 199]
[1]
  MIC: 6.25 µg/mL (≈ 16.8 µM)
[2]
  MIC: 3.13 µg/mL (≈ 8.4 µM)

## Nc1ncccc1-c1cc(Cc2ccc(OCc3ccc(F)cc3)cc2)no1 [Example 7, 3-(3-(4-(4-Fluoro-benzyloxy)-benzyl)-isoxazol-5-yl)-pyridin-2-ylamine]
[1]
  MIC: 0.2 µg/mL (≈ 0.533 µM)
[2]
  MIC: 1.56 µg/mL (≈ 4.16 µM)

## Nc1ccc(-c2cc(Cc3ccc(COc4ccccn4)nc3)no2)c(N)n1 [Example 154]
[1]
  MIC: 1.56 µg/mL (≈ 4.17 µM)
[2]
  MIC: 0.78 µg/mL (≈ 2.08 µM)

## Nc1ccc(-c2cc(Cc3ccc(COc4ccc(F)cc4)nc3)no2)c(N)n1 [Example 132, 3-(3-(6-(4-Fluoro-phenoxymethyl)-pyridin-3-ylmethyl)-isoxazol-5-yl)pyridin-2,6-diamine]
[1]
  MIC: 3.13 µg/mL (≈ 8 µM)
[2]
  MIC: 3.13 µg/mL (≈ 8 µM)

## Nc1ncccc1-c1cc(Cc2ccc(Br)cc2)no1 [Example 207, 3-(3-(4-bromo-benzyl)-isoxazol-5-yl)-pyridin-2-ylamine]
[1]
  MIC: 6.25 µg/mL (≈ 18.9 µM)
[2]
  MIC: 25 µg/mL (≈ 75.7 µM)

## Nc1ccc(-c2cc(Cc3ccc(OCc4ccccc4)nc3)no2)cn1 [Example 179, 5-(3-(6-Benzyloxy-pyridin-3-ylmethyl)-isoxazol-5-yl)-pyridin-2-ylamine]
[1]
  MIC: 0.39 µg/mL (≈ 1.09 µM)
[2]
  MIC: 0.78 µg/mL (≈ 2.18 µM)

## COc1cccc(COc2ccc(Cc3cc(-c4ccc(N)nc4N)on3)cc2)n1 [Example 163, 3-(3-(4-(6-Methoxy-pyridin-2-ylmethoxy)-benzyl)-isoxazol-5-yl)-pyridin-2,6-diamine]
[1]
  MIC: 1.56 µg/mL (≈ 3.87 µM)
[2]
  MIC: 3.13 µg/mL (≈ 7.76 µM)

## CCOCc1ccc(Cn2cc(-c3cccnc3N)cn2)cc1 [Example 196, 3-(1-(4-Ethoxymethyl-benzyl)-1H-pyrazol-4-yl)-pyridin-2-ylamine]
[1]
  MIC: 6.25 µg/mL (≈ 20.3 µM)
[2]
  MIC: 6.25 µg/mL (≈ 20.3 µM)

## Nc1ncccc1-c1cc(Cc2ccc(COc3ccc(F)cc3)nc2)no1 [Example 72, 3-(3-(6-(4-Fluoro-phenoxymethyl)-pyridin-3-ylmethyl)-isoxazol-5-yl)pyridin-2-ylamine]
[1]
  MIC: 12.5 µg/mL (≈ 33.2 µM)
[2]
  MIC: 6.25 µg/mL (≈ 16.6 µM)

## Nc1ccc(-c2cc(Cc3ccc(Oc4ccccc4)cn3)no2)c(N)n1 [Example 121, 3-(3-(5-Phenoxy-pyridin-2-ylmethyl)-isoxazol-5-yl)-pyridin-2,6-diamine]
[1]
  MIC: 0.78 µg/mL (≈ 2.17 µM)
[2]
  MIC: 0.39 µg/mL (≈ 1.09 µM)

## Nc1ncccc1-c1cc(Cc2ccc(OCc3ccc(F)c(F)c3)nc2)no1 [Example 89, 3-(3-(6-(3,4-Difluoro-benzyloxy)-pyridin-3-ylmethyl)-isoxazol-5-yl)-pyridin-2-ylamine]
[1]
  MIC: 0.2 µg/mL (≈ 0.507 µM)
[2]
  MIC: 0.39 µg/mL (≈ 0.989 µM)

## Nc1ccc(-c2cc(Cc3ccc(COc4ncccc4F)cc3)no2)c(N)n1 [Example 149, 3-(3-(4-(3-Fluoro-pyridin-2-yloxymethyl)-benzyl)-isoxazol-5-yl)-pyridin-2,6-diamine]
[1]
  MIC: 1.56 µg/mL (≈ 3.99 µM)
[2]
  MIC: 6.25 µg/mL (≈ 16 µM)

## Cc1ccc(-c2cc(Cc3ccc(OCc4ccccc4)cc3)no2)c(N)n1 [Example 170, 3-(3-(4-benzyloxy-benzyl)-isoxazol-5-yl)-6-methyl-pyridin-2-ylamine]
[1]
  MIC: 0.39 µg/mL (≈ 1.05 µM)
[2]
  MIC: 0.78 µg/mL (≈ 2.1 µM)

## CN(C)c1ncccc1-c1cc(Cc2ccc(OCc3ccccc3)cc2)no1 [Example 228, (3-(3-(4-Benzyloxy-benzyl)-isoxazol-5-yl)-pyridin-2-yl)-dimethyl-amine]
[1]
  MIC: 0.78 µg/mL (≈ 2.02 µM)
[2]
  MIC: 0.78 µg/mL (≈ 2.02 µM)

## Cc1nc(N)ccc1-c1cc(Cc2ccc(OCc3ccccc3)cc2)no1 [Example 188, 5-(3-(4-Benzyloxy-benzyl)-isoxazol-5-yl)-6-methyl-pyridin-2-ylamine]
[1]
  MIC: 0.78 µg/mL (≈ 2.1 µM)
[2]
  MIC: 1.56 µg/mL (≈ 4.2 µM)

## Nc1ccc(-c2cc(Cc3ccc(OCc4ccccc4)cn3)no2)c(N)n1 [Example 127, 3-(3-(5-Benzyloxy-pyridin-2-ylmethyl)-isoxazol-5-yl)-pyridin-2,6-diamine]
[1]
  MIC: 1.56 µg/mL (≈ 4.18 µM)
[2]
  MIC: 0.78 µg/mL (≈ 2.09 µM)

## Nc1ncccc1-c1cc(Cc2ccc(Oc3cccc(F)c3)cc2)no1 [Example 81, 3-(3-(4-(3-Fluoro-phenoxy)-benzyl)-isoxazol-5-yl)-pyridin-2-ylamine]
[1]
  MIC: 0.39 µg/mL (≈ 1.08 µM)
[2]
  MIC: 0.2 µg/mL (≈ 0.553 µM)

## COc1cccc(COc2ccc(Cc3cc(-c4cccnc4N)on3)cc2)c1 [Example 98, 3-(3-(4-(3-Methoxy-benzyloxy)-benzyl)-isoxazol-5-yl)-pyridin-2-ylamine]
[1]
  MIC: 0.39 µg/mL (≈ 1.01 µM)
[2]
  MIC: 0.39 µg/mL (≈ 1.01 µM)

## Nc1ncccc1-c1cc(Cc2ccc(OCc3ccccn3)c(F)c2)no1 [Example 87, 3-(3-(3-Fluoro-4-(pyridin-2-ylmethoxy)-benzyl)-isoxazol-5-yl)-pyridin-2-ylamine]
[1]
  MIC: 0.78 µg/mL (≈ 2.07 µM)
[2]
  MIC: 0.2 µg/mL (≈ 0.531 µM)

## Nc1ncccc1-c1cc(Cc2ccc(CCC3CCCO3)cc2)no1 (stereo not drawn) [Example 82, 3-(3-(4-(2-(Tetrahydrofuran-2-yl)-ethyl)-benzyl)-isoxazol-5-yl)-pyridin-2-ylamine]
[1]
  MIC: 0.39 µg/mL (≈ 1.12 µM)
[2]
  MIC: 0.2 µg/mL (≈ 0.572 µM)

## Nc1ncccc1-c1cc(Cc2ccc(Cc3ccccc3)nc2)no1 [Example 210, 3-(3-(6-Benzyl-pyridin-3-ylmethyl)-isoxazol-5-yl)-pyridin-2-ylamine]
[1]
  MIC: 0.2 µg/mL (≈ 0.584 µM)
[2]
  MIC: 0.1 µg/mL (≈ 0.292 µM)

## Nc1ncccc1-c1cc(Cc2ccc(OCc3nccs3)cc2)no1 [Example 88, 3-(3-(4-(Thiazol-2-ylmethoxy)-benzyl)-isoxazol-5-yl)-pyridin-2-ylamine]
[1]
  MIC: 0.2 µg/mL (≈ 0.549 µM)
[2]
  MIC: 0.2 µg/mL (≈ 0.549 µM)

## Nc1ccc(-c2cc(Cc3ccc(Oc4ccccn4)cc3)no2)c(N)n1 [Example 222, 3-(3-(4-(Pyridin-2-yloxy)-benzyl)-isoxazol-5-yl)-pyridin-2,6-diamine]
[1]
  MIC: 0.39 µg/mL (≈ 1.09 µM)
[2]
  MIC: 0.39 µg/mL (≈ 1.09 µM)
